US8524713B2, “Substituted spirocyclic piperidine derivatives as histamine-3 (H3) receptor ligands” (Cephalon, Inc, priority 2008, dated 2013)
Counter-ions that a name gives are not always drawn.

Columns and labels:
[1] = target: T1, rat histamine H3 receptor (Rattus norvegicus, UniProt Q9QYN8); assay: Rat H3 radioligand binding ([3H]-N-alpha-methylhistamine, SPA); conditions: membranes of CHO-A3 cells expressing rat H3 receptor; [3H]-N-alpha-methylhistamine about 1 nM
T1 construct: encoding the entire 445-amino-acid rat histamine H3 receptor; expressed in transfected cells; membrane preparation
Text: Cell line development and membrane preparation. The rat H3 receptor cDNA was PCR amplified from reverse-transcribed RNA pooled from rat thalamus, hypothalamus, striatum and prefrontal cortex with a sequence corresponding to by #338-1672 of Genbank file #NM_053506, encoding the entire 445-amino-acid rat histamine H3 receptor. This was engineered into the pIRES-neo3 mammalian expression vector, which was stably transfected into the CHO-A3 cell line (Euroscreen, Belgium), followed by clonal selection by limiting dilution. Cells were harvested and cell pellets were frozen (−80° C.). Cell pellets were resuspended in 5 mM Tris-HCl, pH 7.5 with […] and a cocktail of protease inhibitors (Complete Protease Inhibitior Tablets, Roche Diagnostics). Cells were disrupted using a polytron cell homogenizer and the suspension was centrifuged at 1000×g for 10 minutes at 4° C. The pellet was discarded and the supernatant centrifuged at 40,000×g for 30 min at 4° C. This membrane pellet was washed in membrane buffer containing 50 mM Tris-HCl, pH 7.5 with 0.6 mM EDTA, 5 mM MgCl2 and protease inhibitors, recentrifuged as above and the final pellet resuspended in membrane buffer plus 250 mM sucrose and frozen at −80° C.
(§1) Radioligand Binding. Membranes were resuspended in 50 mM Tris HCl (pH 7.4), 5 mM MgCl2, 0.1% BSA. The membrane suspensions (10 μg protein per well) were incubated in a 96 well microtiter plate with [^3H]-N-alpha-methylhistamine (approximately 1 nM final concentration), test compounds at various concentrations (0.01 nM-30 μM) and scintillation proximity beads (Perkin Elmer, FlashBlueGPCR Scintillating Beads) in a final volume of 80 μl for 4 hours at room temperature, protected from light. Non-specific binding was determined in the presence of 10 μM clobenpropit. Radioligand bound to receptor, and therefore in proximity to the scintillation beads, was measured using a MicroBeta scintillation counter.

human H3 receptor = target: T2, human H3 receptor (Homo sapiens, UniProt Q9Y5N1); assay: Human H3 radioligand binding ([3H]-N-alpha-methylhistamine, SPA); conditions: membranes of CHO cells expressing human H3 receptor; [3H]-N-alpha-methylhistamine about 1 nM
T2 construct: expressed in transfected cells; membrane preparation
Procedure: Methods: CHO cells stably expressing the human H3 receptor (GenBank: NM_007232) were harvested and cell pellets were frozen (−80° C.). Cell pellets were resuspended in 5 mM Tris-HCl, pH 7.5 with […] and a cocktail of protease inhibitors (Complete Protease Inhibitior Tablets, Roche Diagnostics). Cells were disrupted using a polytron cell homogenizer and the suspension was centrifuged at 1000×g for 10 minutes at 4° C. The pellet was discarded and the supernatant centrifuged at 40,000×g for 30 min at 4° C. This membrane pellet was washed in membrane buffer containing 50 mM Tris-HCl, pH 7.5 with 0.6 mM EDTA, 5 mM MgCl2 and protease inhibitors, recentrifuged as above and the final pellet resuspended in membrane buffer plus 250 mM sucrose and frozen at −80° C.
as §1

T2 sequence (Q9Y5N1 whole entry): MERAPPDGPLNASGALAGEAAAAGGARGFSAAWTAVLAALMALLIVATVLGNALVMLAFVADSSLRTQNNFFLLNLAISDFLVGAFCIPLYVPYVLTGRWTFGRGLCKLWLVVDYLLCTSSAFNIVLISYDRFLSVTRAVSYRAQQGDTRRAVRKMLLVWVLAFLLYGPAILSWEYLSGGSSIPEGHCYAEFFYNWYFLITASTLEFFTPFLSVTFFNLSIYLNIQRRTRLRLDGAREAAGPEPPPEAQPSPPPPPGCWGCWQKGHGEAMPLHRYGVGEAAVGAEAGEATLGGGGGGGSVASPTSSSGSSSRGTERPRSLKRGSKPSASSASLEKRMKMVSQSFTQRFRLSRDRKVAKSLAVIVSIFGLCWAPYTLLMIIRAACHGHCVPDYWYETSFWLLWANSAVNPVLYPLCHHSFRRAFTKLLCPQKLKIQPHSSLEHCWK
T1 sequence (Q9QYN8 whole entry): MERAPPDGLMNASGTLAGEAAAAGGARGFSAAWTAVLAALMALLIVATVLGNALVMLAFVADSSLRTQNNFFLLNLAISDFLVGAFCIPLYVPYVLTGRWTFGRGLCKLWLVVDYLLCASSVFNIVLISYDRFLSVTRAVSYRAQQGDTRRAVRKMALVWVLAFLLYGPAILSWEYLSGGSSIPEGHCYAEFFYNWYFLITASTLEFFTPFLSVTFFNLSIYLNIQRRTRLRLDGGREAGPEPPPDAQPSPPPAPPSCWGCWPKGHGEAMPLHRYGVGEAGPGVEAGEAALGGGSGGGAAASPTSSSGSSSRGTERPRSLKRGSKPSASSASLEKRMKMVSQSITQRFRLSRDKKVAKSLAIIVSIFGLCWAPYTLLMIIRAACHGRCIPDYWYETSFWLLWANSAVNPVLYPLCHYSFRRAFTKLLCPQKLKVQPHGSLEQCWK

Compound	Ki [1] [nM]	Ki (human H3 receptor) [nM]	melting point [°C]
O=c1cccnn1CCCOc1ccc2c(c1)CCC1(CCN(C3CCC3)CC1)O2 [Example 24, 1′-Cyclobutyl-6-(3-(2-pyridazin-3-one)propyloxy]-spiro[3,4-dihydrobenzopyran-2,4′-piperidine]]	< 200	< 200	–
O=C1CCC(c2ccc3c(c2)CC2(CCN(C4CCC4)CC2)O3)=NN1 [Example 1, 6-(1-Cyclobutyl-spiro[benzofuran-2(3H),4′-piperidine]-5-yl)-4,5-dihydro-2H-pyridazin-3-one]	< 200	< 200	207 to 209
Cc1cc(=O)[nH]nc1-c1ccc2c(c1)CCC1(CCN(C3CCC3)CC1)O2 [Example 13, 1′-Cyclobutyl-6-(5-methyl-2H-pyridazin-3-one-6-yl)-spiro[3,4-dihydrobenzopyran-2,4′-piperidine]]	< 200	< 200	270 to 272
Clc1ccc(-c2ccc3c(c2)CC2(CCN(C4CCC4)CC2)O3)nn1 [Example 15, 1′-Cyclobutyl-5-(6-chloropyridazin-3-yl)spiro[benzofuran-2(3H)-4′-piperidine]]	< 200	< 200	193 to 194
O=c1cccnn1CCCOc1ccc2c(c1)CCC1(CCN(C3CCC3)CC1)O2 (as salt: HCl) [Example 24, 1′-Cyclobutyl-6-(3-(2-pyridazin-3-one)propyloxy]-spiro[3,4-dihydrobenzopyran-2,4′-piperidine]]	–	–	207 to 209
Cn1nc(-c2ccc3c(c2)COC2(CCN(C4CCC4)CC2)O3)ccc1=O [Example 27]	< 200	< 200	185 to 187
Cn1nc(-c2ccc3c(c2)CCC2(CCN(C4CCC4)CC2)O3)ccc1=O [Example 20]	< 200	< 200	147 to 149
O=C1NN=C(c2ccc3c(c2)CCC2(CCN(C4CCC4)CC2)O3)C2CCC12 (single isomer, unassigned) [Example 22]	< 200	< 200	–
O=C1NN=C(c2ccc3c(c2)CCC2(CCN(C4CCC4)CC2)O3)C2CC12 (stereo not drawn) [Example 7, 1′-Cyclobutyl-6-(3,4-diaza-bicyclo[4.1.0]hept-4-en-2-one-5-yl)-spiro[3,4-dihydrobenzopyran-2,4′-piperidine]]	< 200	< 200	–
O=C1NN=C(c2ccc3c(c2)CCC2(CCN(C4CCC4)CC2)O3)C2CCC12 (racemic) [Example 10, 1′-Cyclobutyl-6-(3,4-diaza-bicyclo[4.2.0]oct-4-en-2-one-5-yl)-spiro[3,4-dihydrobenzopyran-2,4′-piperidine]]	< 200	< 200	–
CC(C)N1CCC2(CCc3cc(C4=NNC(=O)C5CC45)ccc3O2)CC1 (stereo not drawn) [Example 9]	< 200	< 200	–
O=C1NN=C(c2ccc3c(c2)CCC2(CCN(C4CCC4)CC2)O3)C2CCC12 (single isomer, unassigned) [Example 23]	< 200	< 200	–
O=C1NN=C(c2ccc3c(c2)CCC2(CCN(C4CCCC4)CC2)O3)C2CC12 (stereo not drawn) [Example 8, 1′-Cyclopentyl-6-(3,4-diaza-bicyclo[4.1.0]hept-4-en-2-one-5-yl)-spiro[3,4-dihydrobenzopyran-2,4′-piperidine]]	< 200	< 200	–
O=c1cccnn1CC(O)COc1ccc2c(c1)CCC1(CCN(C3CCC3)CC1)O2 (stereo not drawn) [Example 25, 1′-Cyclobutyl-6-(3-(2-pyridazin-3-one)-2-hydroxypropyloxy]-spiro[3,4-dihydrobenzopyran-2,4′-piperidine]]	< 200	< 200	–
O=C1NN=C(c2ccc3c(c2)CCC2(CCNCC2)O3)C2CC12 (stereo not drawn) [Example 6, 6-(3,4-diaza-bicyclo[4.1.0]hept-4-en-2-one-5-yl)-spiro[3,4-dihydrobenzopyran-2,4′-piperidine]]	> 1000	> 1000	–
O=c1cc(-c2ccc3c(c2)COC2(CCN(C4CCC4)CC2)O3)cn[nH]1 (as salt: HCl) [Example 26]	–	–	258 to 262
O=c1cccnn1CC(O)COc1ccc2c(c1)CCC1(CCN(C3CCC3)CC1)O2 (stereo not drawn) (as salt: HCl) [Example 25, 1′-Cyclobutyl-6-(3-(2-pyridazin-3-one)-2-hydroxypropyloxy]-spiro[3,4-dihydrobenzopyran-2,4′-piperidine]]	–	–	201 to 203
O=c1cc(-c2ccc3c(c2)COC2(CCN(C4CCC4)CC2)O3)cn[nH]1 [Example 26]	< 200	< 200	–
CC1(C)CC(c2ccc3c(c2)CCC2(CCN(C4CCC4)CC2)O3)=NNC1=O [Example 11, 1′-Cyclobutyl-6-(4,4-dimethyl-4,5-dihydro-2H-pyridazin-3-one-6-yl)-spiro[3,4-dihydrobenzopyran-2,4′-piperidine]]	< 200	< 200	–

Results, then the compound that gave them:

Ki [1] [nM]	Ki (human H3 receptor) [nM]	melting point [°C]	Compound
< 200	< 200	192 to 194	O=C1CCC(c2ccc3c(c2)COC2(CCN(C4CCC4)CC2)O3)=NN1 [Example 36]
< 200	< 200	–	O=C1NN=C(c2ccc3c(c2)COC2(CCN(C4CCC4)CC2)O3)C2CC12 (stereo not drawn) [Example 37]
–	–	255 to 257	Cc1c(-c2ccc(=O)[nH]n2)ccc2c1COC1(CCN(C3CCC3)CC1)O2 (as salt: HCl) [Example 31]
–	–	271 to 274	O=C1NN=C(c2ccc3c(c2)COC2(CCN(C4CCC4)CC2)O3)C2CCC12 (stereo not drawn) (as salt: HCl) [Example 38]
< 200	< 200	–	Cc1cc(=O)[nH]nc1-c1ccc2c(c1)COC1(CCN(C3CCC3)CC1)O2 [Example 40]
< 200	< 200	–	CC1(C)CC(c2ccc3c(c2)COC2(CCN(C4CCC4)CC2)O3)=NNC1=O [Example 34, 1′-Cyclobutyl-6-[5H-4,4-dimethylpyridazin-3-one)-spiro[1,3-benzodioxine-2,4′-piperidine]]
< 200	< 200	–	Cc1c(-c2ccc3c(c2)COC2(CCN(C4CCC4)CC2)O3)n[nH]c(=O)c1C [Example 41]
–	–	> 300	Cc1c(-c2ccc3c(c2)COC2(CCN(C4CCC4)CC2)O3)n[nH]c(=O)c1C (as salt: HCl) [Example 41]
< 200	< 200	–	O=C1NN=C(c2ccc3c(c2)COC2(CCN(C4CCC4)CC2)O3)C2CCC12 (stereo not drawn) [Example 38]
–	–	209 to 214	CC1CC(=O)NN=C1c1ccc2c(c1)COC1(CCN(C3CCC3)CC1)O2 (stereo not drawn) (as salt: HCl) [Example 39]
< 200	< 200	–	CC1CC(=O)NN=C1c1ccc2c(c1)COC1(CCN(C3CCC3)CC1)O2 (stereo not drawn) [Example 39]
–	–	265 to 267	Cc1cc(=O)[nH]nc1-c1ccc2c(c1)COC1(CCN(C3CCC3)CC1)O2 (as salt: HCl) [Example 40]
–	–	> 300	O=C1NN=C(c2ccc3c(c2)COC2(CCN(C4CCC4)CC2)O3)C2CC12 (stereo not drawn) (as salt: HCl) [Example 37]
–	–	269 to 270	Cc1cc2c(cc1-c1ccc(=O)n(C)n1)COC1(CCN(C3CCC3)CC1)O2 (as salt: HCl) [Example 30]
< 200	< 200	–	Cc1cc2c(cc1-c1ccc(=O)n(C)n1)COC1(CCN(C3CCC3)CC1)O2 [Example 30]
< 200	< 200	–	Cc1c(-c2ccc(=O)[nH]n2)ccc2c1COC1(CCN(C3CCC3)CC1)O2 [Example 31]
